According to patent US11976058B2, “Aromatic derivatives, preparation methods, and medical uses thereof” (Bioardis LLC, priority 2019, dated 2024):
Like-named read-outs stand apart in the source and are kept apart here.

How the values were obtained:
human FGFR4 = target: T1, human FGFR4 (Homo sapiens, UniProt P22455); test: FGFR4 enzymatic assay (HTRF KinEASE-TK); format: biochemical; conditions: wild-type human FGFR4 cytoplasmic domain (460-802), GST-tag; 60 min preincubation at 25° C.; ATP 200 μM; read-out: Potency (IC50), FGFR4 enzymatic assay
T1 construct: human FGFR4 cytoplasmic domain (460-802); GST (N); purchased Carna Biosciences 08-136
Method in brief: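 GST-tagged FGFR4 cytoplasmic domain (460-802) at 0.25 μg/ml, preincubated with compound 60 min at 25 °C in HEPES pH 7.0 buffer, then reacted 40 min at 37 °C with 0.3 μM biotin-TK peptide and 200 μM ATP. HTRF detection (665/612 nm) after 60 min; IC50 by four-parameter logistic fit.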

Hep3B cells = test: Cell-based FGFR4 proliferation assay (CellTiter-Glo); conditions: incubated with test compound for 3 days, CellTiter-Glo luminescence, read-out: Potency (IC50), Hep3B cell proliferation
Description: Hepatocellular carcinoma cell line Hep3B (ATCC, Cat #HB-8064) were cultured at 37° C., 5% CO2 in ATCC-formulated Eagle's Minimum Essential Medium supplemented with 10% fetal bovine serum; 1% Penicillin-Streptomycin.
(§1) Cell line: Hepatocellular carcinoma cell line Hep3B (ATCC, Cat #HB-8064).
In this assay, Hep3B cells are seeded in 384-well microplates, and after exposure to experimental compounds for […], CellTiter-Glo® Luminescent Cell Viability Assay kit (Promega, Cat #G7572) are used to determine the number of viable cells in the culture based on quantitation of the ATP present, which signals the presence of metabolically active cells. Luminescent signal is proportional to the amount of ATP present. The amount of ATP is directly proportional to the number of cells present in the culture, allowing drug-induced effects on cell proliferation to be measured.
Hep3B cells were plated at a density of 4×10^4/ml cells in a 384-well black/clear microplate with 20 μL per well of MEM Medium (Gibco Cat. #11095-080) supplemented with 10% fetal bovine serum; 1% Penicillin-Streptomycin, and cultured overnight at 37° C., 5% CO2. Various concentrations of the test compound (dissolved in 100% DMSO) were added to the wells of the cell plate. The cells were incubated with the test compound for 3 days at 37° C., 5% CO2. 5 μL of CellTiter-Glo® Reagent was added to each well of the cell plate. The cell plate was incubated for 5 min at 25° C. on a plate shaker (IKA MTS 2/4) at 300 rpm. Luminescence signals were read on a TECAN Spark 10M instrument (TECAN). […] The concentrations and percent inhibition values for a test compound were plotted and the concentration of the compound required to achieve 50% inhibition (IC50) is determined with a four-parameter logistic dose response equation. Dose-response curves were generated using Prism (GraphPad Software, La Jolla, CA, US) to calculate IC50 values for each compound tested.

[1] = tested on: MAPK phosphorylation in Hep3B cells stimulated with FGF19; test: FGFR4 pMAPK AlphaLISA SureFire Ultra assay; format: cell-based; conditions: serum-starved, compound 1 hour, FGF19 100 ng/ml for 4 hours, read-out: Potency (IC50), FGFR4 pMAPK AlphaLISA
Text: as §1
In normal liver, circulating FGF19 drives liver cell proliferation and regulates bile acid production. However aberrant expression of FGF19 in the liver drives HCC tumorigenesis, upregulates MAPK phosphorylation in FGF19-amplified malignant liver cells. AlphaScreen SureFire technology allows the detection of phosphorylated proteins in cellular lysates in a highly sensitive, quantitative assay. In these assays, sandwich antibody complexes, which are only formed in the presence of analyte, are captured by AlphaScreen Donor and Acceptor beads, bringing them into close proximity. The excitation of the Donor bead provokes the release of singlet oxygen molecules that triggers a cascade of energy transfer in the Acceptor beads, resulting in the emission of light at 520-620 nm.
Hep3B cells were plated at a density of 1×10^4/ml cells in a 96-well plate (Corning #3599), with 100 uL per well of MEM Medium (Gibco Cat #11095-080) supplemented with 10% fetal bovine serum; 1% Penicillin-Streptomycin, and cultured overnight at 37° C., 5% CO2. Starve Hep3B cells in serum-free medium (SFM) supplemented with 0.2% BSA and incubate the cells again overnight at 37° C., 5% CO2. Various concentrations of the test compound (prepared in 2x SFM) were added to the wells of the cell plate and then incubated for 1 hour at 37° C., 5% CO2. 50 μL of FGF19 in SFM was added to each well of the cell plate with a final FGF19 concentration of 100 ng/ml, and cells treated with FGF19 were stimulated for 4 hours at 37° C., 5% CO2. 5 μL of freshly prepared Donor Mix and Acceptor Mix were sequentially added to the cell plate, each followed with 1 hour of incubation at 25° C., 5% CO2. Read the cell plate on an Alpha Technology-compatible plate reader at 570 nm AlphaScreen, using standard AlphaLISA settings. The percent (%) inhibition=((ZPE−Alpha-Signal)/(ZPE−HPE))*100% where the meanings of HPE and ZPE are as provided below.
HPE: Hundred Percent Effect, negative control well without FGF19 nor compound. Final concentration of DMSO is 0.1%.
ZPE: Zero Percent Effect, positive control well without compound. Final concentration of FGF19 is 100 ng/mL, DMSO is 0.1%.
The concentrations and percent inhibition values for a test compound were plotted and the concentration of the compound required to achieve 50% inhibition (IC50) was determined with a four-parameter logistic dose response equation. Dose-response curves were generated using Prism (GraphPad Software, La Jolla, CA, US) to calculate IC50 values for each compound tested.

T1 sequence (P22455 460-802): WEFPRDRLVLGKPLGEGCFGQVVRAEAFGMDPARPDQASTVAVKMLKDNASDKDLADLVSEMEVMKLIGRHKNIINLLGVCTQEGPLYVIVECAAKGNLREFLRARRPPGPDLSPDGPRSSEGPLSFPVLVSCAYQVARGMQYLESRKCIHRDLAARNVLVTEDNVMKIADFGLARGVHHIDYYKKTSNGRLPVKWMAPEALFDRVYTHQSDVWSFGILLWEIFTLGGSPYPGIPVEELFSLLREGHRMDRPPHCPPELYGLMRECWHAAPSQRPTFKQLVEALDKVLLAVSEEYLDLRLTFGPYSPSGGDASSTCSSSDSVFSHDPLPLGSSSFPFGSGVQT

SMILES	IC50 (human FGFR4) [nM]	IC50 (Hep3B cells; Homo sapiens, Hep3B, 72 h) [nM]	IC50 ([1]; Homo sapiens, Hep3B) [nM]	IC50 (Hep3B cells) [nM]	IC50 [1] [nM]
[2H]C([2H])([2H])n1ncc(NC(=O)C=C)c1-c1n[nH]c2c1CCC(c1cc(OC)cc(OC)c1F)C2 (single isomer, unassigned) [Compound S16-P3, N-(5-(6-(2-fluoro-3,5-dimethoxyphenyl)-4,5,6,7-tetrahydro-1H-indazol-3-yl)-1-(methyl-d3)-1H-pyrazol-4-yl)acrylamide]	10 to 100	> 100	10 to 100		
[2H]C([2H])([2H])n1ncc(NC(=O)C=C)c1-c1n[nH]c2c1CCC(c1cc(OC)cc(OC)c1F)C2 (single isomer, unassigned) [Compound S16-P4, N-(5-(6-(2-fluoro-3,5-dimethoxyphenyl)-4,5,6,7-tetrahydro-1H-indazol-3-yl)-1-(methyl-d3)-1H-pyrazol-4-yl)acrylamide]	10 to 100			> 100	10 to 100
C=CC(=O)Nc1cnn(C(C)C)c1-c1n[nH]c2c1CCC(c1c(F)c(OC)cc(OC)c1F)C2 (single isomer, unassigned) [Compound S17-P1, N-(5-(6-(2,6-difluoro-3,5-dimethoxyphenyl)-4,5,6,7-tetrahydro-1H-indazol-3-yl)-1-isopropyl-1H-pyrazol-4-yl)acrylamide]	10 to 100		10 to 100	> 100	
C=CC(=O)Nc1cnn(C(C)C)c1-c1n[nH]c2c1CCC(c1c(F)c(OC)cc(OC)c1F)C2 (single isomer, unassigned) [Compound S17-P2, N-(5-(6-(2,6-difluoro-3,5-dimethoxyphenyl)-4,5,6,7-tetrahydro-1H-indazol-3-yl)-1-isopropyl-1H-pyrazol-4-yl)acrylamide]	10 to 100			10 to 100	< 10
C=CC(=O)Nc1cnn(C)c1-c1n[nH]c2c1CCC(c1c(F)c(OC)cc(OC)c1F)=C2 [Compound S5-P1, N-(5-(6-(2,6-difluoro-3,5-dimethoxyphenyl)-4,5-dihydro-1H-indazol-3-yl)-1-methyl-1H-pyrazol-4-yl) acrylamide]	10 to 100	10 to 100	< 10		
C=CC(=O)Nc1cnn(C)c1-c1n[nH]c2c1CCC(c1cc(OC)cc(OC)c1F)=C2 [Compound S5-P2, N-(5-(6-(2-fluoro-3,5-dimethoxyphenyl)-4,5-dihydro-1H-indazol-3-yl)-1-methyl-1H-pyrazol-4-yl)acrylamide]	10 to 100	> 100	10 to 100		
C=CC(=O)Nc1cnn(C)c1-c1n[nH]c2c1CCC1(C2)OCc2c(OC)cc(OC)c(F)c21 (stereo not drawn) [Compound S9, N-(5-(7′-fluoro-4′,6′-dimethoxy-1,4,5,7-tetrahydro-3′H-spiro[indazole-6,1′-isobenzofuran]-3-yl)-1-methyl-1H-pyrazol-4-yl)acrylamide]	10 to 100	> 100	> 100		
C=CC(=O)Nc1cn[nH]c1-c1n[nH]c2c1CCC[C@@H](c1c(F)c(OC)cc(OC)c1F)C2 [Compound S11-P2, (R)—N-(5-(7-(2,6-difluoro-3,5-dimethoxyphenyl)-1,4,5,6,7,8-hexahydrocyclohepta[c]pyrazol-3-yl)-1H-pyrazol-4-yl)acrylamide]	< 10			< 10	< 10
C=CC(=O)Nc1cnn(CC)c1-c1n[nH]c2c1CC[C@@H](c1c(F)c(OC)cc(OC)c1F)C2 [Compound S14-P1, (R)—N-(5-(6-(2,6-difluoro-3,5-dimethoxyphenyl)-4,5,6,7-tetrahydro-1H-indazol-3-yl)-1-ethyl-1H-pyrazol-4-yl) acrylamide]	10 to 100	> 100	10 to 100		

More lines, now with the values ahead:

IC50 (human FGFR4) [nM]	IC50 (Hep3B cells; Homo sapiens, Hep3B, 72 h) [nM]	IC50 ([1]; Homo sapiens, Hep3B) [nM]	IC50 (Hep3B cells) [nM]	IC50 [1] [nM]	SMILES
10 to 100	10 to 100	< 10			C=CC(=O)Nc1cn(C)nc1-c1n[nH]c2c1CCCC(c1cc(OC)cc(OC)c1F)C2 (single isomer, unassigned) [Compound S12-P3, N-(3-(7-(2-fluoro-3,5-dimethoxyphenyl)-1,4,5,6,7,8-hexahydrocyclohepta[c]pyrazol-3-yl)-1-methyl-1H-pyrazol-4-yl) acrylamide]
< 10			< 10	< 10	C=CC(=O)Nc1cn(C)nc1-c1n[nH]c2c1CCCC(c1cc(OC)cc(OC)c1F)C2 (single isomer, unassigned) [Compound S12-P4, N-(3-(7-(2-fluoro-3,5-dimethoxyphenyl)-1,4,5,6,7,8-hexahydrocyclohepta[c]pyrazol-3-yl)-1-methyl-1H-pyrazol-4-yl) acrylamide]
< 10	< 10	< 10			C=CC(=O)Nc1c[nH]nc1-c1n[nH]c2c1CCC(c1c(F)c(OC)cc(OC)c1F)C2 (single isomer, unassigned) [Compound S15-P1, N-(3-(6-(2,6-difluoro-3,5-dimethoxyphenyl)-4,5,6,7-tetrahydro-1H-indazol-3-yl)-1H-pyrazol-4-yl)acrylamide]
10 to 100	10 to 100	< 10			C=CC(=O)Nc1c[nH]nc1-c1n[nH]c2c1CCC(c1cc(OC)cc(OC)c1F)C2 (single isomer, unassigned) [Compound S15-P3, N-(3-(6-(2-fluoro-3,5-dimethoxyphenyl)-4,5,6,7-tetrahydro-1H-indazol-3-yl)-1H-pyrazol-4-yl)acrylamide]
10 to 100			10 to 100	< 10	C=CC(=O)Nc1c[nH]nc1-c1n[nH]c2c1CCC(c1cc(OC)cc(OC)c1F)C2 (single isomer, unassigned) [Compound S15-P4, N-(3-(6-(2-fluoro-3,5-dimethoxyphenyl)-4,5,6,7-tetrahydro-1H-indazol-3-yl)-1H-pyrazol-4-yl)acrylamide]
< 10	10 to 100	< 10			[2H]C([2H])([2H])n1ncc(NC(=O)C=C)c1-c1n[nH]c2c1CCC(c1c(F)c(OC)cc(OC)c1F)C2 (single isomer, unassigned) [Compound S16-P1, N-(5-(6-(2,6-difluoro-3,5-dimethoxyphenyl)-4,5,6,7-tetrahydro-1H-indazol-3-yl)-1-(methyl-d3)-1H-pyrazol-4-yl)acrylamide]
